From patent US9409952B2, “Peptide-compound cyclization method” (Chugai Seiyaku Kabushiki Kaisha, priority 2011, dated 2016)
Read-outs that look alike come from different tables or passages of the source. Starred links: 1 amine or outer side, 2 acyl side, 3 side chain; linkers in the order of their positions; H or OH if unused. Positions of bridges follow the written chain, without caps; N, C: chain ends. Non-standard residues stand in square brackets, D forms with d. Residues, ends and D or L forms follow the SMILES beside them. *: point of attachment. Phe(3-(CH2)4CO) = O=C([C@H](Cc1cccc(CCCCC(=O)[*:3])c1)N[*:1])[*:2]; Ala(4-thiazolyl) = N[C@@H](Cc1cscn1)C(=O)O; hhPhe = N[C@@H](CCCc1ccccc1)C(=O)O; NMeF = CN[C@@H](Cc1ccccc1)C(=O)O; NMeGABA = CN(CCCC(=O)[*:2])[*:1]; NMeI = CC[C@H](C)[C@H](NC)C(=O)O; NMeL = CN[C@@H](CC(C)C)C(=O)O; NMeV = CN[C@H](C(=O)O)C(C)C; NMeA = CN[C@@H](C)C(=O)O; Piperidide = C1CCN(*)CC1; dNMeA = CN[C@H](C)C(=O)O; β3hA = C[C@H](N)CC(=O)O; Sar = CNCC(=O)O; tBu = CC(C)(C)*

Legend:
[1] = PAMPA (parallel artificial membrane permeability assay); assay type: in vitro ADME; conditions: PAMPA
Summary of the method: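 Artificial membrane was 10% (w/v) egg lecithin plus 0.5% (w/v) cholesterol in dodecane on a PVDF filter. A 10 mM DMSO stock was added at 0.5% (v/v) to donor buffer (50 mM MOPSO, pH 6.5, 5.0% glycocholic acid). After 18 h at 37 °C, LC/MS or LC/UV gave donor and acceptor levels for Pe.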

[2] = Metabolic stability in human hepatic microsome; assay type: in vitro ADME; conditions: microsomes
[3] = membrane permeation rate (Pe), 50 mM MOPSO buffer pH 6.5 with 5.0% glycocholic acid, 37° C., 18 hours, read-out: iPAMPA Pe
[4] = pH 7.4, human hepatic microsome, NADPH(+), read-out: CL NADPH(+)

SMILES | Papp at 18 hours, 50 µM [1, 3] | microsomal CLint at 1 uM [2, 4] | Papp at 18 hours, 50 µM ([1]; pH 6.5) | microsomal CLint at 1 uM ([2]; human, pH 7.4, CL NADPH(+))
CC(C)C[C@@H]1NC(=O)[C@@H]2CCCN2C(=O)[C@H](Cc2ccccc2)N(C)C(=O)[C@H](C)N(C)C(=O)[C@H]([C@@H](C)O)NC(=O)[C@@H](C(C)C)NC(=O)C[C@@H](C(=O)N2CCCCC2)NC(=O)[C@H](CC(C)C)N(C)C(=O)[C@H](C)N(C)C(=O)[C@H](CCCc2ccccc2)NC(=O)[C@H](C(C)C)N(C)C1=O [DP-733] ([dV]T[NMeA][NMeF]PL[NMeV][hhPhe][NMeA][NMeL]D-Piperidide; lactam N-11) | 26 ×10⁻⁶ cm/s | 97 µL/min/mg | – | –
CC(C)C[C@H]1C(=O)N(C)[C@@H](C)C(=O)N[C@H](C(=O)N2CCCCC2)CC(=O)N(C)[C@@H](C)C(=O)N(C)[C@@H](C)C(=O)N[C@@H](C)C(=O)N(C)[C@@H](C)C(=O)N(C)[C@@H](CC(C)C)C(=O)N(C)[C@@H](Cc2ccccc2)C(=O)N[C@@H]([C@@H](C)O)C(=O)N(C)[C@@H](C)C(=O)N1C [DP-480] ([NMeA][NMeA]A[NMeA][NMeL][NMeF]T[NMeA][NMeL][NMeA]D-Piperidide; lactam N-11) | 6.6 ×10⁻⁶ cm/s | 15 µL/min/mg | – | –
CC(C)C[C@H]1C(=O)N[C@@H]([C@@H](C)O)C(=O)N(C)[C@@H](C)C(=O)N(C)[C@@H](CC(C)C)C(=O)N[C@@H](C(C)C)C(=O)N[C@H](C(=O)N(C)[C@@H](Cc2ccccc2)C(=O)N(C)[C@@H](Cc2ccccc2)C(=O)N[C@@H](C)C(=O)N2CCCCC2)CC(=O)N(C)[C@@H](C)C(=O)N(C)[C@@H](Cc2ccccc2)C(=O)N(C)CC(=O)N1C [DP-405] ([NMeA][NMeF][Sar][NMeL]T[NMeA][NMeL]VD[NMeF][NMeF]A-Piperidide; lactam N-9) | 26 ×10⁻⁶ cm/s | 83 µL/min/mg | – | –
CC(C)C[C@@H]1NC(=O)[C@H](CC(C)C)N(C)C(=O)[C@H](Cc2ccccc2)NC(=O)[C@H](C)NC(=O)[C@H](C(C)C)N(C)C(=O)CN(C)C(=O)[C@H]([C@@H](C)O)NC(=O)[C@H](C)N(C)C(=O)[C@H](CC(C)C)N(C)C(=O)[C@H](C)NC(=O)C[C@@H](C(=O)N(C)[C@@H](Cc2ccccc2)C(=O)N[C@@H](C)C(=O)N2CCCCC2)NC1=O [DP-177] (A[NMeL][NMeA]T[Sar][NMeV]AF[NMeL]LD[NMeF]A-Piperidide; lactam N-11) | 23 ×10⁻⁶ cm/s | 27 µL/min/mg | – | –
C=C1CCC(=O)NCC(=O)N(C)[C@@H](C)C(=O)N[C@@H](CC(C)C)C(=O)N[C@@H](C(C)C)C(=O)N(C)[C@@H](CC(C)C)C(=O)N[C@@H](Cc2ccccc2)C(=O)N(C)[C@@H](Cc2ccccc2)C(=O)N[C@@H]([C@@H](C)CC)C(=O)N(C)[C@@H](C)C(=O)N[C@@H](CC(C)C)C(=O)N[C@@H]([C@@H](C)O)C(=O)N[C@H](C(=O)N2CCCCC2)Cc2cccc1c2 [DP-889] | 3.6 ×10⁻⁶ cm/s | 89 µL/min/mg | – | –
CC(C)C[C@H]1C(=O)N(C)[C@@H](Cc2ccccc2)C(=O)N(C)[C@@H](C(C)C)C(=O)N[C@@H](Cc2ccccc2)C(=O)N[C@H](C(=O)N(C)[C@@H](Cc2ccccc2)C(=O)N[C@@H](C)C(=O)N2CCCCC2)CC(=O)N(C)[C@@H](C)C(=O)N[C@@H](C(C)C)C(=O)N(C)[C@@H](CC(C)C)C(=O)N[C@@H]([C@@H](C)O)C(=O)NCC(=O)N1C [DP-191] ([NMeA]V[NMeL]TG[NMeL][NMeF][NMeV]FD[NMeF]A-Piperidide; lactam N-10) | 34 ×10⁻⁶ cm/s | 46 µL/min/mg | – | –
CC[C@H](C)[C@H]1C(=O)N[C@@H]([C@@H](C)O)C(=O)N(C)[C@@H](C)C(=O)N(C)[C@@H](CC(C)C)C(=O)N[C@H](C(=O)N2CCCCC2)CC(=O)N(C)CC(=O)N(C)[C@@H](CC(C)C)C(=O)N[C@@H](CC(C)C)C(=O)N(C)[C@@H](Cc2ccccc2)C(=O)N[C@@H](COC(C)(C)C)C(=O)N(C)[C@@H](Cc2ccccc2)C(=O)N1C [DP-69] ([Sar][NMeL]L[NMeF]S(tBu)[NMeF][NMeI]T[NMeA][NMeL]D-Piperidide; lactam N-11) | – | – | 21 ×10⁻⁶ cm/s | 68 µL/min/mg
CC(C)C[C@H]1C(=O)N[C@@H](COC(C)(C)C)C(=O)N(C)[C@@H](CC(C)C)C(=O)N[C@H](C(=O)N2CCCCC2)Cc2cccc(c2)CCCCC(=O)N(C)[C@@H](C)C(=O)N(C)[C@@H](Cc2ccccc2)C(=O)N(C)[C@@H](CC(C)C)C(=O)N[C@@H]([C@@H](C)O)C(=O)N(C)CC(=O)N1C [DP-838] ([NMeA][NMeF][NMeL]T[Sar][NMeL]S(tBu)[NMeL][Phe(3-(CH2)4CO)]-Piperidide; lactam N-9) | 54 ×10⁻⁶ cm/s | 224 µL/min/mg | – | –
CC[C@H](C)[C@H]1C(=O)N[C@@H](CC(C)C)C(=O)NCC(=O)N(C)[C@@H](CC(C)C)C(=O)N[C@@H](Cc2ccccc2)C(=O)N[C@@H]([C@@H](C)O)C(=O)N(C)[C@@H](C)C(=O)N[C@H](C(=O)N2CCCCC2)CC(=O)N(C)[C@@H](C)C(=O)N[C@@H](Cc2ccccc2)C(=O)N(C)[C@@H](C(C)C)C(=O)N[C@@H](CC(C)C)C(=O)N1C [DP-89] ([NMeA]F[NMeV]L[NMeI]LG[NMeL]FT[NMeA]D-Piperidide; lactam N-12) | – | – | 23 ×10⁻⁶ cm/s | 58 µL/min/mg
CC(C)C[C@H]1C(=O)N[C@@H](C)CC(=O)N(C)[C@H](C)C(=O)N(C)[C@@H](Cc2ccccc2)C(=O)N(C)[C@@H](CC(C)C)C(=O)N[C@@H]([C@@H](C)O)C(=O)N(C)CC(=O)N[C@@H](COC(C)(C)C)C(=O)N1C [DP-797] (cyclo([NMeF][NMeL]T[Sar]S(tBu)[NMeL][β3hA][dNMeA])) | 26 ×10⁻⁶ cm/s | 91 µL/min/mg | – | –
CC[C@H](C)[C@@H]1NC(=O)[C@@H](C(C)C)NC(=O)C[C@@H](C(=O)N(C)[C@@H](Cc2ccccc2)C(=O)N[C@@H](C)C(=O)N2CCCCC2)NC(=O)[C@H](Cc2ccccc2)N(C)C(=O)[C@H](C)NC(=O)[C@H](CC(C)C)N(C)C(=O)[C@H](C)N(C)C(=O)[C@H]([C@@H](C)O)NC(=O)[C@H](C)N(C)C(=O)[C@H](C(C)C)N(C)C1=O [DP-294] ([dV]I[NMeV][NMeA]T[NMeA][NMeL]A[NMeF]D[NMeF]A-Piperidide; lactam N-10) | – | – | 17 ×10⁻⁶ cm/s | 35 µL/min/mg
CC(C)C[C@H]1C(=O)N(C)[C@@H](C)C(=O)N[C@H](C(=O)N(C)[C@@H](Cc2ccccc2)C(=O)N[C@@H](C)C(=O)N2CCCCC2)CC(=O)N(C)[C@@H](C)C(=O)N(C)[C@@H](C)C(=O)N(C)[C@@H](Cc2ccccc2)C(=O)N[C@@H]([C@@H](C)O)C(=O)N(C)[C@@H](C)C(=O)N(C)[C@@H](Cc2ccccc2)C(=O)N[C@@H](C)C(=O)N1C [DP-377] ([NMeA][NMeA][NMeF]T[NMeA][NMeF]A[NMeL][NMeA]D[NMeF]A-Piperidide; lactam N-10) | 23 ×10⁻⁶ cm/s | 70 µL/min/mg | – | –
CC(C)C[C@H]1C(=O)N[C@@H](COC(C)(C)C)C(=O)N(C)CC(=O)N[C@@H]([C@@H](C)O)C(=O)N[C@H](C(=O)N2CCCCC2)CC(=O)N[C@@H](C(C)C)C(=O)N(C)[C@@H](Cc2ccccc2)C(=O)N1C [DP-724] (V[NMeF][NMeL]S(tBu)[Sar]TD-Piperidide; lactam N-7) | 20 ×10⁻⁶ cm/s | 160 µL/min/mg | – | –
CC[C@H](C)[C@@H]1NC(=O)CN(C)C(=O)[C@H](Cc2ccccc2)N(C)C(=O)[C@H]([C@@H](C)O)NC(=O)[C@H](CC(C)C)N(C)C(=O)[C@H](C)N(C)C(=O)CCCN(C)C(=O)C[C@@H](C(=O)N(C)[C@@H](Cc2ccccc2)C(=O)N[C@@H](C)C(=O)N2CCCCC2)NC(=O)[C@H](C(C)C)N(C)C(=O)[C@H](CC(C)C)N(C)C1=O [DP-374] ([NMeGABA][NMeA][NMeL]T[NMeF][Sar]I[NMeL][NMeV]D[NMeF]A-Piperidide; lactam N-10) | 24 ×10⁻⁶ cm/s | 53 µL/min/mg | – | –
CC[C@H](C)[C@@H]1NC(=O)[C@H](Cc2ccccc2)NC(=O)[C@H](C)N(C)C(=O)C[C@@H](C(=O)N2CCCCC2)NC(=O)[C@H](CC(C)C)NC(=O)[C@H](Cc2ccccc2)NC(=O)[C@H](Cc2ccccc2)N(C)C(=O)[C@H](CC(C)C)NC(=O)[C@H]([C@@H](C)O)NC(=O)[C@H](CC(C)C)N(C)C1=O [DP-332] ([NMeA]FI[NMeL]TL[NMeF]FLD-Piperidide; lactam N-10) | 14 ×10⁻⁶ cm/s | 284 µL/min/mg | – | –
CC(C)C[C@H]1C(=O)N[C@@H](COC(C)(C)C)C(=O)N[C@H](C(=O)N2CCCCC2)CC(=O)N[C@@H](C)C(=O)N(C)[C@@H](Cc2ccccc2)C(=O)N(C)CC(=O)N(C)[C@@H](Cc2ccccc2)C(=O)N[C@@H]([C@@H](C)O)C(=O)N1C [DP-711] (A[NMeF][Sar][NMeF]T[NMeL]S(tBu)D-Piperidide; lactam N-8) | 29 ×10⁻⁶ cm/s | 217 µL/min/mg | – | –
CC(C)C[C@@H]1NC(=O)[C@H](CC(C)C)N(C)C(=O)[C@H](C)N(C)C(=O)[C@@H](C(C)C)NC(=O)C[C@@H](C(=O)N2CCCCC2)NC(=O)[C@H](Cc2cscn2)NC(=O)[C@H](C)N(C)C(=O)[C@H](C)N(C)C(=O)[C@H](C)N(C)C(=O)[C@H](Cc2ccccc2)NC(=O)[C@H](Cc2ccccc2)N(C)C1=O [DP-624] ([dV][NMeA][NMeL]L[NMeF]F[NMeA][NMeA][NMeA][Ala(4-thiazolyl)]D-Piperidide; lactam N-11) | 24 ×10⁻⁶ cm/s | 30 µL/min/mg | – | –
CC(C)C[C@H]1C(=O)N(C)[C@@H](C)C(=O)N(C)[C@@H](CC(C)C)C(=O)N[C@@H]([C@@H](C)O)C(=O)N(C)[C@@H](C)C(=O)N(C)[C@@H](CC(C)C)C(=O)N[C@@H](COC(C)(C)C)C(=O)N[C@@H](C)CC(=O)N[C@H](C(C)C)C(=O)N1C [DP-802] (cyclo([NMeA][NMeL]S(tBu)[β3hA][dV][NMeL][NMeA][NMeL]T)) | 29 ×10⁻⁶ cm/s | 77 µL/min/mg | – | –
CC(C)C[C@H]1C(=O)N[C@@H](COC(C)(C)C)C(=O)N[C@H](C(=O)N2CCCCC2)CC(=O)N(C)[C@@H](C)C(=O)N(C)[C@@H](C)C(=O)N(C)[C@@H](Cc2ccccc2)C(=O)N(C)[C@@H](CC(C)C)C(=O)N[C@@H]([C@@H](C)O)C(=O)N(C)[C@@H](C)C(=O)N1C [DP-267] ([NMeA][NMeA][NMeF][NMeL]T[NMeA][NMeL]S(tBu)D-Piperidide; lactam N-9) | 25 ×10⁻⁶ cm/s | 75 µL/min/mg | – | –
